In patent US8008506B2, “Indazole compounds” (priority 2008, dated 2011):
Read-outs that look alike come from different tables or passages of the source. Each block holds one compound with its values, some of them ahead of it.

Experiments:
Type in all cases: cell-based
[1] = target: T1, human β1 adrenergic receptor (Homo sapiens, UniProt P08588); assay: Test Example 2-B: human β1 adrenergic receptor agonist activity (method of Test Example 1-B); details: for β1 receptor EC50: Table 2, Test Example 2-B; for Emax: read-out: β1 receptor I.A.
T1 construct: expressed in transfected cells; host or cells: CHO (Chinese Hamster Ovary) cells, pcDNA3
Procedure: (§1) The measurement of human β3 adrenergic receptor agonist activity is carried out using CHO (Chinese Hamster Ovary) cells transfected with pcDNA3 (manufactured by Invitrogen, Inc.) to which human β3 gene has been inserted. […] This human β3 cDNA fragment is used as a probe, and the full length human β3 gene is obtained from a human genomic library (manufactured by Clontech Laboratories, Inc.). The above cells are cultured in Ham's F-12 medium containing 10% fetal bovine serum and 400 μg/ml geneticin (manufactured by Invitrogen, Inc.). These cells are seeded on a 96-well plate to a concentration of 2×10^4 cells/well, and after being cultured for about 20 hours, the cells are left to stand in 80 μL of serum-free Ham's F-12 medium for 15 minutes. A test compound is initially dissolved in DMSO, and then is diluted stepwise with Ham's F-12 containing 100 mmol/L HEPES and 1 mmol/L isobutylmethylxanthine. 20 μL of the dilution is added to the cells. After the cells are cultured for 30 minutes, the medium is removed. 0.3. ml of the Assay/lysis Buffer included in cAMP-Screen kit (manufactured by Applied Biosystems, Inc.) is added to the cells, and the cells are incubated at 37° C. for 30 minutes. The resulting cell lysate is subjected to quantification of cAMP with the cAMP-Screen kit. […] Measurement of Human β1 Adrenergic Receptor Agonist Activity

[2] = target: T2, human β2 adrenergic receptor (Homo sapiens, UniProt P07550); assay: Test Example 3-B: human β2 adrenergic receptor agonist activity (method of Test Example 1-B); details: for β2 receptor EC50: Table 2, Test Example 3-B; for Emax: read-out: β2 receptor I.A.
T2 construct: expressed in transfected cells; host or cells: CHO (Chinese Hamster Ovary) cells, pcDNA3
Procedure: [Worded in the source for another target; this target is reported under the same test.] as §1, with “β2” for “β1”

[3] = target: T3, human α1A adrenergic receptor (Homo sapiens, UniProt P35348); assay: Test Example 4: human α1A adrenergic receptor agonist activity (Ca flux, Fura-2, transfected HEK293 cells); details: for Emax: HEK293, read-out: α1A receptor I.A.
T3 construct: expressed in transfected cells; host or cells: HEK293 cells, pcDNA3.1(−), hygromycin B selection
T3 sequence (P35348 1-466): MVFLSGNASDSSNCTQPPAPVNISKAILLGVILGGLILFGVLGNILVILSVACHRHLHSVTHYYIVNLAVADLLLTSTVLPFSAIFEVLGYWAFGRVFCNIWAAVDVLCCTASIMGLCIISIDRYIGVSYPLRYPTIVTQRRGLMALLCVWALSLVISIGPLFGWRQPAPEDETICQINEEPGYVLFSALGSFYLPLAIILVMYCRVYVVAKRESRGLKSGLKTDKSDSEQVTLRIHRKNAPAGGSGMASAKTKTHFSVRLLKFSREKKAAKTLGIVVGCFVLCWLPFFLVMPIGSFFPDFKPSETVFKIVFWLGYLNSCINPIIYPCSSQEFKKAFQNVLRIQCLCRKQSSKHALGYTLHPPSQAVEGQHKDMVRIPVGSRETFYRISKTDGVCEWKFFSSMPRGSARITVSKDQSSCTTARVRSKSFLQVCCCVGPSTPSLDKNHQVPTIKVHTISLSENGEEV
Procedure: Measurement of Human α1A Adrenergic Receptor Agonist Activity
The measurement of human α1A adrenergic receptor agonist activity is carried out using HEK293 cells transfected with pcDNA3.1(−) (manufactured by Invitrogen, Inc.) to which human α1A gene has been inserted. These cells are cultured in DMEM medium containing 10% fetal bovine serum, 400 μg/ml hygromycin B (manufactured by Gibco BRL), 100 U/ml penicillin and 100 μg/ml streptomycin. […] The cells are loaded in a CO2 incubator for 30 minutes, and then are washed twice with the Assay Buffer to remove excess Fura-2AM. The cells are centrifuged, and then are prepared into a solution at 5×10^6 cells/ml with the Assay Buffer. Subsequently, the cells are dispensed on a 96-well plate (manufactured by Corning, Inc.) at a volume of 80 μl/well, and the plate is used as a cell plate. […] Subsequently, measurement of fluorescence intensity (excitation wavelength 340 nm and 380 nm, measurement wavelength 500 nm) is initiated at an interval of 2 seconds. After making measurements for about 30 seconds, 20 μl of the test sample from the sample plate is added to the cell plate, and measurements are further continued for 270 seconds. The Ca flux resulting from the test compound is calculated utilizing the difference between the maximum value of fluorescence intensity ratio at the wavelengths 340 nm and 380 nm after the addition of the test compound, and the fluorescence intensity ratio before the addition of the test compound, as the peak height.

[4] = target: T4, human β3 adrenergic receptor (Homo sapiens, UniProt P13945); assay: Test Example 1-B: human β3 adrenergic receptor agonist activity (cAMP-Screen kit, transfected CHO cells, 96-well); details: for Emax: CHO, read-out: β3 receptor I.A.; for EC50: Table 2, Test Example 1-B
T4 construct: the full length human β3 gene is obtained from a human genomic library; expressed in transfected cells; host or cells: CHO (Chinese Hamster Ovary) cells, pcDNA3, geneticin selection
Procedure: Measurement of Human β3 Adrenergic Receptor Agonist Activity
The measurement of human β3 adrenergic receptor agonist activity is carried out using CHO (Chinese Hamster Ovary) cells transfected with pcDNA3 (manufactured by Invitrogen, Inc.) to which human β3 gene has been inserted. […] This human β3 cDNA fragment is used as a probe, and the full length human β3 gene is obtained from a human genomic library (manufactured by Clontech Laboratories, Inc.). The above cells are cultured in Ham's F-12 medium containing 10% fetal bovine serum and 400 μg/ml geneticin (manufactured by Invitrogen, Inc.). These cells are seeded on a 96-well plate to a concentration of 2×10^4 cells/well, and after being cultured for about 20 hours, the cells are left to stand in 80 μL of serum-free Ham's F-12 medium for 15 minutes. A test compound is initially dissolved in DMSO, and then is diluted stepwise with Ham's F-12 containing 100 mmol/L HEPES and 1 mmol/L isobutylmethylxanthine. 20 μL of the dilution is added to the cells. After the cells are cultured for 30 minutes, the medium is removed. 0.3. ml of the Assay/lysis Buffer included in cAMP-Screen kit (manufactured by Applied Biosystems, Inc.) is added to the cells, and the cells are incubated at 37° C. for 30 minutes. The resulting cell lysate is subjected to quantification of cAMP with the cAMP-Screen kit.

[5] = Table 2, Test Example 4, read-out: α1A receptor EC50

T2 sequence (P07550 whole entry): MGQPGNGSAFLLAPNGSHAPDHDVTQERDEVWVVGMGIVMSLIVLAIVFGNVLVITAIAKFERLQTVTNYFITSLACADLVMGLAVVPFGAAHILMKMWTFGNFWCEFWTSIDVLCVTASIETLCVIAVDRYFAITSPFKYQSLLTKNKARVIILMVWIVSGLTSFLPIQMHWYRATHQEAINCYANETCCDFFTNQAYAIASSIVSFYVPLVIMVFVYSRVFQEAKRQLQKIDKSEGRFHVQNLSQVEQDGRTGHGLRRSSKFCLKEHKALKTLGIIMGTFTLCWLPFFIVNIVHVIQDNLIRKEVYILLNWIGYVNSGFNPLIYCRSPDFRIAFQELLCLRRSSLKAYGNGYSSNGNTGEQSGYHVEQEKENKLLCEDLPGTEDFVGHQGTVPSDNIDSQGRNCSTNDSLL
T1 sequence (P08588 whole entry): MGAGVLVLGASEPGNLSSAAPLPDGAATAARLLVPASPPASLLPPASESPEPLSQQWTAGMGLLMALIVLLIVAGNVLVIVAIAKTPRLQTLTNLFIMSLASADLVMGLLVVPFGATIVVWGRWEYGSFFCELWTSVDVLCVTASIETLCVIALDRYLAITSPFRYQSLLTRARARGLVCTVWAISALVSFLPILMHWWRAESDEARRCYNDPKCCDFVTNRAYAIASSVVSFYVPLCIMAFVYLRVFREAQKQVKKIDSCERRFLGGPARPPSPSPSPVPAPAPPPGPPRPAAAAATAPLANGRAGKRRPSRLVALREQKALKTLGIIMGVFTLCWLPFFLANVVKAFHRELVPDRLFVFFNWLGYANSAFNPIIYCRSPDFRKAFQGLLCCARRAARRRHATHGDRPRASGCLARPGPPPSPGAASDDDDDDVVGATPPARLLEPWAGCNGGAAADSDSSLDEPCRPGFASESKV
T4 sequence (P13945 whole entry): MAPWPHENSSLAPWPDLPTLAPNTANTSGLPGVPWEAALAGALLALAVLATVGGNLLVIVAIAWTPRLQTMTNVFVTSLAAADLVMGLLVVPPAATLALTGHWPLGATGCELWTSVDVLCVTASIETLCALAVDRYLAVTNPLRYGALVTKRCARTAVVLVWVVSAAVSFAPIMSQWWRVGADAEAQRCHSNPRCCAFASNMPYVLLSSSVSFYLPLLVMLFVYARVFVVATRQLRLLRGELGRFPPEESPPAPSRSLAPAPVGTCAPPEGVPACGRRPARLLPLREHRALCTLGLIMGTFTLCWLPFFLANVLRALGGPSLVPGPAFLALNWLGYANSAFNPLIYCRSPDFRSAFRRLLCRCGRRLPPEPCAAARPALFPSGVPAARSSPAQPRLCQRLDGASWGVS

Structure (SMILES): CS(=O)(=O)Nc1cc([C@@H](O)CNCCOc2ccc3c(C(F)(F)F)n[nH]c3c2)ccc1F [Example 10, (R)-N-(2-fluoro-5-(1-hydroxy-2-(2-(3-(trifluoromethyl)indazol-6-yloxy)ethylamino)ethyl)phenyl)methanesulfonamide]
β1 receptor EC50 [1]: a) | Emax [1]: 8% | β2 receptor EC50 [2]: a) | Emax [2]: 3% | Emax [3]: 15% | EC50 [3, 5]: 1.29 µM | Emax [4]: 53% | EC50 [4]: 0.041 µM

Structure (SMILES): Cc1n[nH]c2cc(OCCNC[C@H](O)c3cccc(NS(=O)(=O)C(C)C)c3)ccc12 [Example 12, (R)-N-(3-(1-hydroxy-2-(2-(3-methylindazol-6-yloxy)ethylamino)ethyl)phenyl)propane-2-sulfonamide]
β1 receptor EC50 [1]: b) | Emax [1]: -1% | β2 receptor EC50 [2]: a) | Emax [2]: 2% | EC50 [3]: 1.31 µM | Emax [3]: 34% | Emax [4]: 84% | EC50 [4]: 0.084 µM

Structure (SMILES): CCc1n[nH]c2cc(OCCNC[C@H](O)c3cccc(NS(=O)(=O)C(C)C)c3)ccc12 [Example 13, (R)-N-(3-(2-(2-(3-ethylindazol-6-yloxy)ethylamino)-1-hydroxyethyl)phenyl)propane-2-sulfonamide]
β1 receptor EC50 [1]: b) | Emax [1]: -2% | β2 receptor EC50 [2]: b) | Emax [2]: -3% | Emax [3]: 20% | EC50 [3, 5]: > 2 µM | Emax [4]: 80% | EC50 [4]: 0.047 µM

Structure (SMILES): CCc1n[nH]c2cc(OCCNC[C@H](O)c3cccc(NS(=O)(=O)c4ccccc4)c3)ccc12 [Example 15, (R)-N-(3-(2-(2-(3-ethylindazol-6-yloxy)ethylamino)-1-hydroxyethyl)phenyl)benzenesulfonamide]
β1 receptor EC50 [1]: a) | Emax [1]: 1% | β2 receptor EC50 [2]: b) | Emax [2]: -3% | Emax [3]: 0% | EC50 [3, 5]: > 2 µM | Emax [4]: 80% | EC50 [4]: 0.013 µM

Structure (SMILES): NC[C@H](O)c1ccc(O)c(O)c1 [Norepinephrine, reference compound]
Emax [3]: 100% | α1A receptor I.A. ([3]; Table 2, maximum response to norepinephrine taken as 100%): 100%

The remaining lines, values ahead:

β1 receptor EC50 [1]: a) | Emax [1]: 22% | β2 receptor EC50 [2]: a) | Emax [2]: 8% | Emax [3]: 0% | EC50 [3, 5]: > 2 µM | Emax [4]: 65% | EC50 [4]: 0.013 µM
Structure (SMILES): CC(C)c1n[nH]c2cc(OCCNC[C@H](O)c3ccc(Cl)c(NS(C)(=O)=O)c3)ccc12 [Example 7, (R)-N-(2-chloro-5-(1-hydroxy-2-(2-(3-isopropylindazol-6-yloxy)ethylamino)ethyl)phenyl)methanesulfonamide]

β1 receptor EC50 [1]: a) | Emax [1]: 16% | β2 receptor EC50 [2]: b) | Emax [2]: 0% | EC50 [3]: > 2 µM | Emax [3]: 0% | Emax [4]: 90% | EC50 [4]: 0.01 µM
Structure (SMILES): Cc1n[nH]c2cc(OCCNC[C@H](O)c3cccc(NS(=O)(=O)c4ccccc4)c3)ccc12 [Example 14, (R)-N-(3-(1-hydroxy-2-(2-(3-methylindazol-6-yloxy)ethylamino)ethyl)phenyl)benzenesulfonamide]

β1 receptor EC50 [1]: a) | Emax [1]: 3% | β2 receptor EC50 [2]: a) | Emax [2]: 5% | Emax [3]: 26% | EC50 [3, 5]: 0.488 µM | Emax [4]: 80% | EC50 [4]: 0.011 µM
Structure (SMILES): CCc1n[nH]c2cc(OCCNC[C@H](O)c3cccc(NS(=O)(=O)CC)c3)ccc12 [Example 20, (R)-N-(3-(2-(2-(3-ethylindazol-6-yloxy)ethylamino)-1-hydroxyethyl)phenyl)ethanesulfonamide]
